Experimental data: US9738634B2, “Heterocyclic amide compound and herbicide” (SYNGENTA PARTICIPATIONS AG, priority 2013, dated 2017)

Columns and labels:
Type in all cases: in vivo
[1] = tested on: barnyard grass; experiment: Test Example 1: weedkilling efficacy, preemergent weed treatment in the submerged state; A: barnyard grass; conditions: treatment dosage 252 g/ha
How it was run: (§1)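 Pre-emergence application onto floodwater (4 cm, alluvial soil) on the day of sowing, dose expressed as g/ha from diluted emulsion formulation. Weeds sown with 2.5-leaf transplanted rice as crop; plants held at 25–30 °C in greenhouse and scored against assessment criteria after 3 weeks.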

[2] = tested on: bulrush; experiment: Test Example 1: weedkilling efficacy, preemergent weed treatment in the submerged state; B: bulrush; conditions: treatment dosage 252 g/ha
How it was run: as §1

[3] = tested on: oval-leafed pondweed; experiment: Test Example 1: weedkilling efficacy, preemergent weed treatment in the submerged state; C: oval-leafed pondweed; conditions: treatment dosage 252 g/ha
How it was run: as §1

[4] = tested on: transplanted rice; experiment: Test Example 1: preemergent weed treatment in the submerged state, effect on crop; a: transplanted rice; conditions: treatment dosage 252 g/ha
How it was run: as §1

[5] = tested on: barnyard grass; experiment: Test Example 2: weedkilling efficacy, growth period weed treatment in the submerged state; A: barnyard grass; conditions: treatment dosage 252 g/ha
How it was run: (§2)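 Weeds treated at the 1-2 leaf stage by application of diluted emulsion onto floodwater (4 cm depth, alluvial soil) at specified g/ha. Grown in greenhouse at 25 to 30° C; herbicidal effect rated three weeks after treatment.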

[6] = tested on: bulrush; experiment: Test Example 2: weedkilling efficacy, growth period weed treatment in the submerged state; B: bulrush; conditions: treatment dosage 252 g/ha
How it was run: as §2

[7] = tested on: oval-leafed pondweed; experiment: Test Example 2: weedkilling efficacy, growth period weed treatment in the submerged state; C: oval-leafed pondweed; conditions: treatment dosage 252 g/ha
How it was run: as §2

[8] = tested on: crabgrass; experiment: Test Example 3: weedkilling efficacy through soil treatment; D: crabgrass; conditions: soil treatment, treatment dosage 315 g/ha
How it was run: (§3)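 Crop and weed responses were judged three weeks after a uniform surface spray of the water-diluted emulsion at the given g/ha rate. Seeds sat beneath about 1.5 cm of sterilized diluvial soil, and boxes stood in a greenhouse at 25 to 30° C.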

[9] = tested on: green foxtail; experiment: Test Example 3: weedkilling efficacy through soil treatment; E: green foxtail; conditions: soil treatment, treatment dosage 315 g/ha
How it was run: as §3

[10] = tested on: wild oat; experiment: Test Example 3: weedkilling efficacy through soil treatment; G: wild oat; conditions: soil treatment, treatment dosage 315 g/ha
How it was run: as §3

[11] = tested on: black-grass; experiment: Test Example 3: weedkilling efficacy through soil treatment; H: black-grass; conditions: soil treatment, treatment dosage 315 g/ha
How it was run: as §3

[12] = tested on: Italian ryegrass; experiment: Test Example 3: weedkilling efficacy through soil treatment; I: Italian ryegrass; conditions: soil treatment, treatment dosage 315 g/ha
How it was run: as §3

[13] = tested on: Indian mallow; experiment: Test Example 3: weedkilling efficacy through soil treatment; K: Indian mallow; conditions: soil treatment, treatment dosage 315 g/ha
How it was run: as §3

[14] = tested on: redroot pigweed; experiment: Test Example 3: weedkilling efficacy through soil treatment; L: redroot pigweed; conditions: soil treatment, treatment dosage 315 g/ha
How it was run: as §3

[15] = tested on: fig-leafed goosefoot; experiment: Test Example 3: weedkilling efficacy through soil treatment; M: fig-leafed goosefoot; conditions: soil treatment, treatment dosage 315 g/ha
How it was run: as §3

[16] = tested on: chickweed; experiment: Test Example 3: weedkilling efficacy through soil treatment; N: chickweed; conditions: soil treatment, treatment dosage 315 g/ha
How it was run: as §3

[17] = tested on: catchweed; experiment: Test Example 3: weedkilling efficacy through soil treatment; O: catchweed; conditions: soil treatment, treatment dosage 315 g/ha
Description: (§4) Weedkilling Efficacy Test Through Soil Treatment
(§5) Sterilized diluvial soil was introduced into 21 cm long, 13 cm wide, 7 cm deep plastic boxes, and seeds of crabgrass, green foxtail, barnyard grass, wild oat, black-grass, Italian ryegrass, common wind-grass, Indian mallow, redroot pigweed, fig-leafed goosefoot, chickweed, catchweed, birds-eye speedwell, corn, soybean, rice, wheat, beet and rapeseed were each spot-sown, and covered with about 1.5 cm of soil. Next, emulsions of compounds of the present invention prepared according to compounding example 2 were diluted with water to give the specified dosages, and applied uniformly onto the soil surface with a small sprayer. The plants were grown by placing the plastic boxes in a greenhouse at 25 to 30° C., and 3 weeks after the pesticide treatment the effect on each type of plant was investigated on the basis of the assessment criteria of test example 1.
(§6) A: barnyard grass, B: bulrush, C: oval-leafed pondweed, D: crabgrass, E: green foxtail, F: barnyard grass, G: wild oat, H: black-grass, I: Italian ryegrass, J: common wind-grass, K: Indian mallow, L: redroot pigweed, M: fig-leafed goosefoot, N: chickweed, O: catchweed, p: birds-eye speedwell, a: transplanted rice, b: directly sown rice, c: corn, d: soybean, e: wheat, f: beet, g: rapeseed
(§7) Further, pesticide dosage (g/ha) indicates the concentration regulated such that treatment was with only the stated number of grams (g), when calculated per hectare (ha).

[18] = tested on: birds-eye speedwell; experiment: Test Example 3: weedkilling efficacy through soil treatment; p: birds-eye speedwell; conditions: soil treatment, treatment dosage 315 g/ha
Description: as §4, §5, §6, §7

[19] = tested on: directly sown rice; experiment: Test Example 3: soil treatment, effect on crop; b: directly sown rice; conditions: soil treatment, treatment dosage 315 g/ha
How it was run: as §3

[20] = tested on: corn; experiment: Test Example 3: soil treatment, effect on crop; c: corn; conditions: soil treatment, treatment dosage 315 g/ha
How it was run: as §3

[21] = tested on: soybean; experiment: Test Example 3: soil treatment, effect on crop; d: soybean; conditions: soil treatment, treatment dosage 315 g/ha
How it was run: as §3

[22] = tested on: wheat; experiment: Test Example 3: soil treatment, effect on crop; e: wheat; conditions: soil treatment, treatment dosage 315 g/ha
How it was run: as §3

[23] = tested on: beet; experiment: Test Example 3: soil treatment, effect on crop; f: beet; conditions: soil treatment, treatment dosage 315 g/ha
How it was run: as §3

SMILES | A: barnyard grass, weed kill grade [1] | B: bulrush, weed kill grade [2] | C: oval-leafed pondweed, weed kill grade [3] | a: transplanted rice, effect on crop grade [4] | A (barnyard grass) weedkilling efficacy grade [5] | B (bulrush) weedkilling efficacy grade [6] | C (oval-leafed pondweed) weedkilling efficacy grade [7] | D: crabgrass, weedkilling efficacy grade [8] | E: green foxtail, weedkilling efficacy grade [9] | G: wild oat, weedkilling efficacy grade [10] | H: black-grass, weedkilling efficacy grade [11] | I: Italian ryegrass, weedkilling efficacy grade [12] | K: Indian mallow, weedkilling efficacy grade [13] | L: redroot pigweed, weedkilling efficacy grade [14] | M: fig-leafed goosefoot, weedkilling efficacy grade [15] | N: chickweed, weedkilling efficacy grade [16] | P: birds-eye speedwell, weedkilling efficacy grade [18] | b: directly sown rice, effect on crop grade [19] | c: corn, effect on crop grade [20] | d: soybean, effect on crop grade [21] | further results
CC(C)(C(=O)Nc1cc(F)ccn1)N1COCN(c2ccccc2)C1=O [A-2-03] | 5 (weed kill ratio 90% or more, (practically complete withering)) | 5 (weed kill ratio 90% or more, (practically complete withering)) | 5 (weed kill ratio 90% or more, (practically complete withering)) | 1 (weed kill ratio 5% or more, less than 20%) | 5 (weed kill ratio 90% or more, (practically complete withering)) | 5 (weed kill ratio 90% or more, (practically complete withering)) | 3 (weed kill ratio 40% or more, less than 70%) | 5 (weed kill ratio 90% or more, (practically complete withering)) | 5 (weed kill ratio 90% or more, (practically complete withering)) | 5 (weed kill ratio 90% or more, (practically complete withering)) | 5 (weed kill ratio 90% or more, (practically complete withering)) | 5 (weed kill ratio 90% or more, (practically complete withering)) | 0 (weed kill ratio 5% or less (practically no effect)) | 4 (weed kill ratio 70% or more, less than 90%) | 4 (weed kill ratio 70% or more, less than 90%) | 4 (weed kill ratio 70% or more, less than 90%) | 5 (weed kill ratio 90% or more, (practically complete withering)) | 5 (weed kill ratio 90% or more, (practically complete withering)) | 3 (weed kill ratio 40% or more, less than 70%) | 0 (weed kill ratio 5% or less (practically no effect)) | O: catchweed, weedkilling efficacy grade [17]: 5 (weed kill ratio 90% or more, (practically complete withering)); e: wheat, effect on crop grade [22]: 2 (weed kill ratio 20% or more, less than 40%); f: beet, effect on crop grade [23]: 0 (weed kill ratio 5% or less (practically no effect))
CC(C)(C(=O)Nc1cc(Cl)ccn1)N1COCN(c2ccccc2)C1=O [A-2-06] | 5 (weed kill ratio 90% or more, (practically complete withering)) | 5 (weed kill ratio 90% or more, (practically complete withering)) | 5 (weed kill ratio 90% or more, (practically complete withering)) | 4 (weed kill ratio 70% or more, less than 90%) | 5 (weed kill ratio 90% or more, (practically complete withering)) | 5 (weed kill ratio 90% or more, (practically complete withering)) | 5 (weed kill ratio 90% or more, (practically complete withering)) | 5 (weed kill ratio 90% or more, (practically complete withering)) | 5 (weed kill ratio 90% or more, (practically complete withering)) | 5 (weed kill ratio 90% or more, (practically complete withering)) | 5 (weed kill ratio 90% or more, (practically complete withering)) | 5 (weed kill ratio 90% or more, (practically complete withering)) | 4 (weed kill ratio 70% or more, less than 90%) | 5 (weed kill ratio 90% or more, (practically complete withering)) | 4 (weed kill ratio 70% or more, less than 90%) | 4 (weed kill ratio 70% or more, less than 90%) | 5 (weed kill ratio 90% or more, (practically complete withering)) | 5 (weed kill ratio 90% or more, (practically complete withering)) | 3 (weed kill ratio 40% or more, less than 70%) | 3 (weed kill ratio 40% or more, less than 70%) | e: wheat, effect on crop grade [22]: 1 (weed kill ratio 5% or more, less than 20%); f: beet, effect on crop grade [23]: 4 (weed kill ratio 70% or more, less than 90%)
CC(C)(C(=O)Nc1cccc(Br)n1)N1COCN(c2ccccc2)C1=O [A-2-09] | 5 (weed kill ratio 90% or more, (practically complete withering)) | 5 (weed kill ratio 90% or more, (practically complete withering)) | 5 (weed kill ratio 90% or more, (practically complete withering)) | 0 (weed kill ratio 5% or less (practically no effect)) | 5 (weed kill ratio 90% or more, (practically complete withering)) | 5 (weed kill ratio 90% or more, (practically complete withering)) | 5 (weed kill ratio 90% or more, (practically complete withering)) | 5 (weed kill ratio 90% or more, (practically complete withering)) | 5 (weed kill ratio 90% or more, (practically complete withering)) | 5 (weed kill ratio 90% or more, (practically complete withering)) | 5 (weed kill ratio 90% or more, (practically complete withering)) | 5 (weed kill ratio 90% or more, (practically complete withering)) | 3 (weed kill ratio 40% or more, less than 70%) | 5 (weed kill ratio 90% or more, (practically complete withering)) | 4 (weed kill ratio 70% or more, less than 90%) | 4 (weed kill ratio 70% or more, less than 90%) | 5 (weed kill ratio 90% or more, (practically complete withering)) | 5 (weed kill ratio 90% or more, (practically complete withering)) | 3 (weed kill ratio 40% or more, less than 70%) | 3 (weed kill ratio 40% or more, less than 70%) | e: wheat, effect on crop grade [22]: 1 (weed kill ratio 5% or more, less than 20%); f: beet, effect on crop grade [23]: 4 (weed kill ratio 70% or more, less than 90%)
